Columns and labels:
Experiment in all cases: relative viability (nuclei count vs DMSO), 5 days (fraction); higher = more cells survive
[1] = compound: Cc1ccc2nc(NCCN)c3ncc(C)n3c2c1 + CC(=O)Nc1cccc(-n2c(=O)n(C3CC3)c(=O)c3c(Nc4ccc(I)cc4F)n(C)c(=O)c(C)c32)c1 [Trametinib] (partner 0.02 µM)
In short: (§1)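 The day after seeding in 1536-well plates, lung cancer cell lines were treated by pin tool with a single drug, or with a fixed anchor-drug dose together with five library-drug doses (not always all listed) in √10 steps. After 5 days, a combined fix-and-stain solution (final 0.05% Triton X-100, 1% formaldehyde, 1 ug/ml Hoechst) was added. Nuclei counted on 4× images gave relative viability as treated counts over vehicle counts, reported as the median of duplicate plates.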

[2] = compound: Cc1ccc2nc(NCCN)c3ncc(C)n3c2c1 + Cc1nc(Nc2ncc(C(=O)Nc3c(C)cccc3Cl)s2)cc(N2CCN(CCO)CC2)n1 [Dasatinib] (partner 0.075 µM)
In short: as §1

[3] = compound: O=C(/C=C/c1ccccc1)NC(NC(=S)Nc1cccc2cccnc12)C(Cl)(Cl)Cl [Salubrinal] + COc1cccc2cc(-c3nc([C@H]4CC[C@H](C(=O)O)CC4)n4ncnc(N)c34)[nH]c12 [OSI-027] (partner 0.5 µM)
In short: as §1

[4] = compound: O=C(/C=C/c1ccccc1)NC(NC(=S)Nc1cccc2cccnc12)C(Cl)(Cl)Cl [Salubrinal] + CS(=O)(=O)N1CCN(Cc2cc3nc(-c4cccc5[nH]ncc45)nc(N4CCOCC4)c3s2)CC1 [Pictilisib] (partner 1 µM)
In short: as §1

UMC-11 gave a relative viability ([1]; first compound 0.04 µM) of 0.707, a relative viability ([1]; first compound 0.1265 µM) of 0.7 and a relative viability ([1]; first compound 0.4 µM) of 0.72. The relative viability ([1]; first compound 1.265 µM) was 0.703, the relative viability ([1]; first compound 4 µM) was 0.632 and the relative viability ([2]; first compound 0.04 µM) was 0.475. The relative viability ([2]; first compound 0.1265 µM) was 0.477, the relative viability ([2]; first compound 0.4 µM) was 0.431 and the relative viability ([2]; first compound 1.265 µM) was 0.407. It also gave a relative viability ([2]; first compound 4 µM) of 0.387, a relative viability ([3]; first compound 0.08 µM) of 0.498 and a relative viability ([3]; first compound 0.253 µM) of 0.399. It also gave a relative viability ([3]; first compound 0.8 µM) of 0.548, a relative viability ([3]; first compound 2.53 µM) of 0.46 and a relative viability ([3]; first compound 8 µM) of 0.455. It also gave a relative viability ([4]; first compound 0.08 µM) of 0.655, a relative viability ([4]; first compound 0.253 µM) of 0.688 and a relative viability ([4]; first compound 0.8 µM) of 1.02. The relative viability ([4]; first compound 2.53 µM) was 0.933 and the relative viability ([4]; first compound 8 µM) was 0.882.
